Laboratory results from US20170096443A1, “PLATINUM(IV) COMPOUNDS AND METHODS OF MAKING AND USING SAME” (UNIVERSITY OF GEORGIA RESEARCH FOUNDATION, INC., priority 2014, published 2017).

Experiments:
PC3 cells = assay: MTT cytotoxicity assay in PC3 cells; format: cell-based, Human; settings: 72 hours incubation, read-out: IC50 in prostate cancer cells, PC3
Protocol: (§1) Cisplatin and ADIBO-COOH were used as controls. […] Cell Lines and Cell Culture. […] Cytotoxicity Analysis of Platin-CLK by MTT Assay. […] The media was changed and increasing concentrations of each compound was added. […] Final working solutions were prepared in culture media (RPMI) by keeping total DMSO percentage <1%. These were then incubated for 72 hours. […] The IC50 values were reported at ±99% confidence intervals.

DU145 cells = assay: MTT cytotoxicity assay in DU145 cells; format: cell-based, Human; settings: 72 hours incubation, read-out: IC50 in prostate cancer cells, DU145
Protocol: as §1

Compound | IC50 (PC3 cells) [µM] | IC50 (DU145 cells) [µM]
O=C(O)CCC(=O)NCCC(=O)N1Cc2ccccc2C#Cc2ccccc21 [ADIBO-COOH] | > 200 | 284 ± 72
N.N.[Cl][Pt][Cl] [Cisplatin, Cis-diamminedichloroplatinum(II)] | 12 ± 2 | 6 ± 0.9
